Numbers after ± are expanded uncertainties.
Columns and labels:
[1] = 101 kPa, Liquid; for speed of sound: Sing-around technique in a fixed-path interferometer
[2] = refractive index (Na D-line) (dimensionless); conditions: 101.33 kPa, Liquid
[3] = xn = mol fraction of the nth substance listed; conditions: 101 kPa, Liquid; for speed of sound: Sing-around technique in a fixed-path interferometer
[4] = refractive index (Na D-line) (dimensionless); xn = mol fraction of the nth substance listed; conditions: 101 kPa, Liquid

`CCCCC(CC)CO` (centres undefined) [2-ethyl-1-hexanol] showed a mass density ([1]; 298.15 K) of 829.07 ± 0.82 kg/m3, a viscosity ([1]; 298.15 K) of 8.418 ± 0.65 mPa·s and a speed of sound ([1]; 298.15 K) of 1319 ± 10 m/s. It also gave a mass density ([1]; 303.15 K) of 825.39 ± 0.83 kg/m3, a viscosity ([1]; 303.15 K) of 7.144 ± 0.57 mPa·s and a speed of sound ([1]; 303.15 K) of 1301 ± 10 m/s. For the same molecule, the mass density ([1]; 308.15 K) was 821.68 ± 0.84 kg/m3, the viscosity ([1]; 308.15 K) was 6.09 ± 0.5 mPa·s and the speed of sound ([1]; 308.15 K) was 1283 ± 10 m/s. For the same molecule, the refractive index ([2]; 298.15 K) was 1.4287 ± 0.0019, the refractive index ([2]; 303.15 K) was 1.4266 ± 0.0019 and the refractive index ([2]; 308.15 K) was 1.4245 ± 0.0019.

Work on `CCCCC(CC)CO` (centres undefined) [2-ethyl-1-hexanol] + Brc1ccccc1 yielded a speed of sound ([3]; 298.15 K, x2 = 0) of 1319 ± 10 m/s, a mass density ([3]; 298.15 K, x2 = 0) of 829.07 ± 0.82 kg/m3 and a viscosity ([3]; 298.15 K, x2 = 0) of 8.418 ± 0.65 mPa·s. It also gave a speed of sound ([3]; 303.15 K, x2 = 0) of 1301 ± 10 m/s, a mass density ([3]; 303.15 K, x2 = 0) of 825.39 ± 0.83 kg/m3 and a viscosity ([3]; 303.15 K, x2 = 0) of 7.144 ± 0.57 mPa·s. For the same molecule, the speed of sound ([3]; 308.15 K, x2 = 0) was 1283 ± 10 m/s, the mass density ([3]; 308.15 K, x2 = 0) was 821.68 ± 0.84 kg/m3 and the viscosity ([3]; 308.15 K, x2 = 0) was 6.09 ± 0.5 mPa·s. The refractive index ([4]; 298.15 K, x2 = 0) was 1.4287 ± 0.0019, the refractive index ([4]; 303.15 K, x2 = 0) was 1.4266 ± 0.0019 and the refractive index ([4]; 308.15 K, x2 = 0) was 1.4245 ± 0.0019.

In the case of `c1ccccc1` [benzene], the mass density ([1]; 298.15 K) is reported as 873.66 ± 0.66 kg/m3, the viscosity ([1]; 298.15 K) is reported as 0.603 ± 0.065 mPa·s and the speed of sound ([1]; 298.15 K) is reported as 1299 ± 10 m/s. The mass density ([1]; 303.15 K) was 868.29 ± 0.68 kg/m3, the viscosity ([1]; 303.15 K) was 0.557 ± 0.061 mPa·s and the speed of sound ([1]; 303.15 K) was 1276 ± 10 m/s. The mass density ([1]; 308.15 K) was 862.92 ± 0.69 kg/m3, the viscosity ([1]; 308.15 K) was 0.533 ± 0.059 mPa·s and the speed of sound ([1]; 308.15 K) was 1253 ± 10 m/s. For the same molecule, the refractive index ([2]; 298.15 K) was 1.4969 ± 0.0019, the refractive index ([2]; 303.15 K) was 1.4949 ± 0.0019 and the refractive index ([2]; 308.15 K) was 1.4929 ± 0.0019.

`c1ccccc1` [benzene] + CCCCC(CC)CO showed a speed of sound ([3]; 298.15 K, x1 = 1) of 1299 ± 10 m/s, a mass density ([3]; 298.15 K, x1 = 1) of 873.66 ± 0.66 kg/m3 and a viscosity ([3]; 298.15 K, x1 = 1) of 0.603 ± 0.065 mPa·s. For the same molecule, the speed of sound ([3]; 303.15 K, x1 = 1) was 1276 ± 10 m/s, the mass density ([3]; 303.15 K, x1 = 1) was 868.29 ± 0.68 kg/m3 and the viscosity ([3]; 303.15 K, x1 = 1) was 0.557 ± 0.061 mPa·s. The speed of sound ([3]; 308.15 K, x1 = 1) was 1253 ± 10 m/s, the mass density ([3]; 308.15 K, x1 = 1) was 862.92 ± 0.69 kg/m3 and the viscosity ([3]; 308.15 K, x1 = 1) was 0.533 ± 0.059 mPa·s. For the same molecule, the refractive index ([4]; 298.15 K, x1 = 1) was 1.4969 ± 0.0019, the refractive index ([4]; 303.15 K, x1 = 1) was 1.4949 ± 0.0019 and the refractive index ([4]; 308.15 K, x1 = 1) was 1.4929 ± 0.0019.

In the case of `Brc1ccccc1` [bromobenzene], the mass density ([1]; 298.15 K) is reported as 1488.12 ± 2.2 kg/m3, the viscosity ([1]; 298.15 K) is reported as 1.065 ± 0.1 mPa·s and the speed of sound ([1]; 298.15 K) is reported as 1153 ± 10 m/s. The mass density ([1]; 303.15 K) was 1481.4 ± 2.2 kg/m3, the viscosity ([1]; 303.15 K) was 1.005 ± 0.099 mPa·s and the speed of sound ([1]; 303.15 K) was 1138 ± 10 m/s. For the same molecule, the mass density ([1]; 308.15 K) was 1474.58 ± 2.2 kg/m3, the viscosity ([1]; 308.15 K) was 0.972 ± 0.096 mPa·s and the speed of sound ([1]; 308.15 K) was 1122 ± 10 m/s. The refractive index ([2]; 298.15 K) was 1.557 ± 0.0019, the refractive index ([2]; 303.15 K) was 1.555 ± 0.0019 and the refractive index ([2]; 308.15 K) was 1.553 ± 0.0019.

Work on `Clc1ccccc1` [chlorobenzene] yielded a mass density ([1]; 298.15 K) of 1101.03 ± 1.1 kg/m3, a viscosity ([1]; 298.15 K) of 0.767 ± 0.079 mPa·s and a speed of sound ([1]; 298.15 K) of 1268 ± 10 m/s. It also gave a mass density ([1]; 303.15 K) of 1095.52 ± 1.1 kg/m3, a viscosity ([1]; 303.15 K) of 0.716 ± 0.074 mPa·s and a speed of sound ([1]; 303.15 K) of 1249 ± 10 m/s. The mass density ([1]; 308.15 K) was 1090.2 ± 1.1 kg/m3, the viscosity ([1]; 308.15 K) was 0.66 ± 0.069 mPa·s and the speed of sound ([1]; 308.15 K) was 1231 ± 10 m/s. It also gave a refractive index ([2]; 298.15 K) of 1.524 ± 0.002, a refractive index ([2]; 303.15 K) of 1.521 ± 0.002 and a refractive index ([2]; 308.15 K) of 1.518 ± 0.002.

In the case of `Clc1ccccc1` [chlorobenzene] + CCCCC(CC)CO, the speed of sound ([3]; 298.15 K, x1 = 1) is reported as 1268 ± 10 m/s, the mass density ([3]; 298.15 K, x1 = 1) is reported as 1101.03 ± 1.1 kg/m3 and the viscosity ([3]; 298.15 K, x1 = 1) is reported as 0.767 ± 0.079 mPa·s. For the same molecule, the speed of sound ([3]; 303.15 K, x1 = 1) was 1249 ± 10 m/s, the mass density ([3]; 303.15 K, x1 = 1) was 1095.52 ± 1.1 kg/m3 and the viscosity ([3]; 303.15 K, x1 = 1) was 0.716 ± 0.074 mPa·s. It also gave a speed of sound ([3]; 308.15 K, x1 = 1) of 1231 ± 10 m/s, a mass density ([3]; 308.15 K, x1 = 1) of 1090.2 ± 1.1 kg/m3 and a viscosity ([3]; 308.15 K, x1 = 1) of 0.66 ± 0.069 mPa·s. For the same molecule, the refractive index ([4]; 298.15 K, x1 = 1) was 1.524 ± 0.002, the refractive index ([4]; 303.15 K, x1 = 1) was 1.521 ± 0.002 and the refractive index ([4]; 308.15 K, x1 = 1) was 1.518 ± 0.002.

— the NIST ThermoML archive (doi:10.1007/s10765-013-1526-8)
